In assay [1] the test system is alpha-L-Iduronidase W402X in Hurler patient derived fibroblast cells. The assay is described as follows: Hurler patient derived fibroblast cell cultures, restored alpha-L-iduronidase activity (W402X readthrough). Format: cell-based, human. As to conditions: 8 days incubation, highest concentration 20 uM; for Emax / AC50: Homo sapiens, Fibroblast, 192 h; for Emax / Amax: 14 mM paromomycin = 100% control; for Emax: read-out: Amax; for AC50: 8 point dilutions. The source says:
Activity of compounds of the present invention was examined in patient derived fibroblast cells. The genotyped cells were derived from the Coriell Institute (# GM00798) and contain an in frame homozygous TGG to TAG change at nucleotide 1293 of exon 9 which results in a W402X mutation. The W402X mutation is one of the most common Hurler syndromes causing loss of function mutation. Between 60-70% of genotyped patients contain either the Q70X and/or the W402X in mutation and are classified as severe MPSI patients. This TAG stop codon triplet is permissive to aminoglycoside mediated translational readthrough which served as activity control for compound testing. Readthrough of W402X restores alpha-L-Iduronidase activity which results in removal of lysosomal accumulated Glycosaminoglycan's. Iduronidase expression could neither be detected by Taqman PCR© nor by enzyme activity or ELISA methods without compound stimulation. Compounds were tested in concentration response mode. Therefore 5000 patient cells/40 ul/well in 384 well plates were used. Compound dilutions were derived from freshly prepared 10 mM compound stock solutions. Highest concentration was 20 uM and subsequently diluted 1: 3.16 (8 point dilutions, n=4). Final DMSO concentration was below 0.5% and tested to be without effect on cell viability, growth and readthrough. Cells were incubated for 8 days with one cell media and compound exchange at day 3. Thereafter cell media was removed and cells were lysed (0.4 M Sodiumformate, 0.1% NaN3, 0.9% NaCl, 0.2% Triton, pH 3.5). Restored alpha-L-iduronidase activity in cell lysates was measured with the fluorescent 4-MU iduronide substrate (5 ul of 0.4 mM 4 Methylumbelliferyl alpha-L-iduronide/well) after 48 h incubation. Paromomycin was used as reference control (14 mM=100% control).

The test system of a further assay is CFTR-Y122X. The experiment in a line: CFTR-Y122X assay (dual reporter isogenic Hek293 cell lines, Renilla luminescence readthrough). As to conditions: nonsense mutation suppression, 24 h incubation, tested up to 100 μM; for Emax / Amax: 100% = 14 mM paromomycin; for Emax: read-out: Amax. Type of assay: cell-based. The source says:
Activity of compounds of the present invention was examined in recombinant, dual reporter isogenic Hek293 cell lines (“CFTR-Y122X assay”). The engineered reporter constructs contained the 18 bp sequence stretch corresponding to a common Y122X PTC mutation in CFTR class I mutant patients (see Sermet-Gaudelus, BMC Medicine, 2007, 5(5)). Instead of a tyrosine (Y) in position 122 of the CFTR protein a TGA stop codon interrupts the open reading frame (Y122X) of the corresponding mRNA. This TGA stop codon triplet (followed by the pyrimidine base cytosine) is permissive to aminoglycoside mediated translational readthrough which served as positive control for high throughput screening. A corresponding TAA stop codon variant and a wildtype non mutated construct was used for confirmation and counter screening. The CFTR sequence was sandwiched between an eGFP reporter, and a triple myc tag sequence fused to a full length Renilla reporter. All sequences, including an intron containing one positioned pre-eGFP (b-globin intron) were cloned in frame. The corresponding expression constructs were stably expressed in the isogenic HEK-R4 cell host (Invitrogen Incorp.) and selected by blasticidin resistance. The isogenic integration of the construct minimizes gene dose effects and improves assay reproducibility. Stably integrated single cell derived clones were selected and characterized for aminoglycoside mediated readthrough. […] Readthrough of Y122X accumulates an intracellular localized fusion protein approximately 65.5 kDa in size as controlled by western blot analysis and immunofluorescence using an anti-renilla antibody. The eGFP reporter pre-PTC mutation serves as visual control for genetic stability of the screening clones and minimizes protein degradation of small fusion protein amounts. In the assay, compound concentration was 10 μM. In miniaturized 1536 well format 2000 cells were dispensed in 4 μl/well and incubated for 24 h at 37° C., 5% CO2. 40 nl compounds were placed on the cells with control wells containing 1 ul Paramomycin and 14.4 mM final concentration. Compounds were incubated for 24 h. Renilla Glo substrate (2.5 ul) was added and plates were centrifuged and processed for luminescence measurement using various readers. Activity calculation was done using the equation: A1(%)=100*(S−NC)/(AC−NC) where AC, NC and S correspond to active controls (injection of Stimulation buffer=100% stimulation), neutral controls (buffer injection which Iloprost EC10) and screening samples (S). NC corresponds to 0% activity whereas AC is 100% activity (14 mM paromomycin). False positive artifacts were removed in confirmation and validation screening using the same assay format followed by counterscreening using the respective wildtype construct (w/o PTC mutation) cell model. Compounds were tested up to 100 μM compound concentration.

The results in this text go back to patent publication US9884862B2, “Pyridopyrimidinedione derivatives” (Novartis AG, priority 2014, dated 2018).

By AC50 is commonly meant the concentration giving half of the maximal activity seen.

With `Cc1cc2c(s1)c(=O)c1c(=O)n(-c3ccccc3)c(C3CCC3)nc1n2C` [Example 2.12, 2-cyclobutyl-7,9-dimethyl-3-phenylthieno[2′,3′:5,6]pyrido[2,3-d]pyrimidine-4,5(3H,9H)-dione], the Emax in assay [1] was found to be 138%; with CFTR-Y122X (Homo sapiens, HEK293, 24 h) it was 133%. Further, the AC50 in assay [1] was found to be 9 µM; with CFTR-Y122X (Homo sapiens, HEK293, 24 h), 3 µM.

Regarding `Cc1csc2c(=O)c3c(=O)n(-c4ccccc4)c(C(C)C)nc3[nH]c12` [Example 2.21, 2-isopropyl-8-methyl-3-phenylthieno[2′,3′:5,6]pyrido[2,3-d]pyrimidine-4,5(3H,9H)-dione], the Emax in assay [1] was 25%. Also, in the assay on CFTR-Y122X (Homo sapiens, HEK293, 24 h), the Emax was 180% and the AC50 is 14 µM.

As for `CC1CCc2c(c(=O)c3c(=O)n(-c4ccccc4)c(C(C)C)nc3n2C)C1` (stereo not drawn) [Example 3.10, 2-isopropyl-7,10-dimethyl-3-phenyl-6,7,8,9-tetrahydropyrimido[4,5-b]quinoline-4,5(3H,10H)-dione], the Emax in assay [1] worked out at 6%. For the same compound, in the assay on CFTR-Y122X (Homo sapiens, HEK293, 24 h), the Emax is 237% and the AC50 is 12 µM.

For `CC(C)c1nc2c(c(=O)c3c(n2C)CCC3)c(=O)n1-c1ccccc1` [Example 3.4, 2-isopropyl-9-methyl-3-phenyl-7,8-dihydro-3H-cyclopenta[5,6]pyrido[2,3-d]pyrimidine-4,5(6H,9H)-dione], in assay [1], the Emax came to 8% and the AC50 was found to be 1.4 µM. In the assay on CFTR-Y122X (Homo sapiens, HEK293, 24 h), the Emax came to 40% and the AC50 amounted to 18 µM.

In the case of `CC(C)c1nc2[nH]c3sccc3c(=O)c2c(=O)n1-c1ccccc1` [Example 2.6, 2-isopropyl-3-phenylthieno[3′,2′:5,6]pyrido[2,3-d]pyrimidine-4,5(3H,9H)-dione], the Emax in assay [1] was 6%. In addition, in the assay on CFTR-Y122X (Homo sapiens, HEK293, 24 h), the Emax was 97% and the AC50 stood at 16 µM.

As for `Cc1cc2c(s1)c(=O)c1c(=O)n(-c3ccccc3)c(C(C)C)nc1n2C` [Example 2.3, 2-isopropyl-7,9-dimethyl-3-phenylthieno[2′,3′:5,6]pyrido[2,3-d]pyrimidine-4,5(3H,9H)-dione], the Emax in assay [1] is 39%; in the assay on CFTR-Y122X (Homo sapiens, HEK293, 24 h), 169%. The AC50 in the assay on CFTR-Y122X (Homo sapiens, HEK293, 24 h) is 14 µM.

Consider `CCc1cc2c(=O)c3c(=O)n(-c4ccccc4)c(C4CCC4)nc3n(C)c2s1` [Example 2.13, 2-cyclobutyl-7-ethyl-9-methyl-3-phenylthieno[3′,2′:5,6]pyrido[2,3-d]pyrimidine-4,5(3H,9H)-dione], for which, in assay [1], the Emax stood at 66% and the AC50 is 16 µM. In the assay on CFTR-Y122X (Homo sapiens, HEK293, 24 h), the Emax stood at 118% and the activity was half-maximal at 6.1 µM (AC50).

Turning to `Cc1csc2c(=O)c3c(=O)n(-c4ccccc4)c(C4CCC4)nc3n(C)c12` [Example 2.15, 2-cyclobutyl-8,9-dimethyl-3-phenylthieno[2′,3′:5,6]pyrido[2,3-d]pyrimidine-4,5(3H,9H)-dione], in assay [1], the Emax worked out at 115% and the AC50 was found to be 5.7 µM. For the same compound, in the assay with CFTR-Y122X (Homo sapiens, HEK293, 24 h), the Emax came out at 188% and the AC50 is 2.6 µM.

Take `CC1CCc2[nH]c3nc(C(C)C)n(-c4ccccc4)c(=O)c3c(=O)c2C1` (stereo not drawn) [Example 3.8, 2-isopropyl-7-methyl-3-phenyl-6,7,8,9-tetrahydropyrimido[4,5-b]quinoline-4,5(3H,10H)-dione]: in assay [1], the Emax amounted to 12% and half-maximal activity (AC50) was put at 1.3 µM. Also, in the assay on CFTR-Y122X (Homo sapiens, HEK293, 24 h), the Emax came out at 219% and the AC50 came to 12 µM.

Take `Cc1csc2c(=O)c3c(=O)n(-c4ccccc4)c(C(C)C)nc3n(C)c12` [Example 2.22, 2-isopropyl-8,9-dimethyl-3-phenylthieno[2′3′:5,6]pyrido[2,3-d]pyrimidine-4,5(3H,9H)-dione]: the Emax in assay [1] turned out to be 8%. For the same compound, in the assay on CFTR-Y122X (Homo sapiens, HEK293, 24 h), the Emax was found to be 166% and the activity was half-maximal at 16 µM (AC50).

In the case of `Cc1csc2c1c(=O)c1c(=O)n(-c3ccccc3)c(C3CCC3)nc1n2C` [Example 2.14, 2-cyclobutyl-6,9-dimethyl-3-phenylthieno[3′,2′:5,6]pyrido[2,3-d]pyrimidine-4,5(3H,9H)-dione], the Emax in assay [1] is 10%; in the assay on CFTR-Y122X (Homo sapiens, HEK293, 24 h), 114%. Further, the AC50 in the assay on CFTR-Y122X (Homo sapiens, HEK293, 24 h) came to 13 µM.

Consider `CC(C)c1nc2[nH]c3c(c(=O)c2c(=O)n1-c1ccccc1)CCC3` [Example 3.3, 2-isopropyl-3-phenyl-7,8-dihydro-3H-cyclopenta[5,6]pyrido[2,3-d]pyrimidine-4,5(6H,9H)-dione], for which, in assay [1], the Emax is 8%. In addition, in the assay with CFTR-Y122X (Homo sapiens, HEK293, 24 h), the Emax is 112% and the AC50 was determined as 21 µM.

In the case of `CC(C)c1nc2[nH]c3c(c(=O)c2c(=O)n1-c1ccccc1)CCCCC3` [Example 3.1, 2-isopropyl-3-phenyl-7,8,9,10-tetrahydro-3H-cyclohepta[5,6]pyrido[2,3-d]pyrimidine-4,5(6H,11H)-dione], the Emax in assay [1] was determined as 9%; with CFTR-Y122X (Homo sapiens, HEK293, 24 h), 190%. In addition, the AC50 in assay [1] came to 1.4 µM; in the assay on CFTR-Y122X (Homo sapiens, HEK293, 24 h), 13 µM.

Consider `CC1CCc2c([nH]c3nc(C(C)C)n(-c4ccccc4)c(=O)c3c2=O)C1` (stereo not drawn) [Example 3.6, 2-isopropyl-8-methyl-3-phenyl-6,7,8,9-tetrahydropyrimido[4,5-b]quinoline-4,5(3H,10H)-dione], for which, in assay [1], the Emax amounted to 10%. In the assay with CFTR-Y122X (Homo sapiens, HEK293, 24 h), the Emax was found to be 46% and the concentration at half-maximal activity (AC50) worked out at 27 µM.

As for `Cc1cc2c(=O)c3c(=O)n(-c4ccccc4)c(C(C)C)nc3n(C)c2s1` [Example 2.4, 2-isopropyl-7,9-dimethyl-3-phenylthieno[3′,2′:5,6]pyrido[2,3-d]pyrimidine-4,5(3H,9H)-dione], the Amax in assay [1] came out at 13%; in the assay with CFTR-Y122X, 299%. Further, the AC50 with CFTR-Y122X (Homo sapiens, HEK293, 24 h) came to 11 µM.

As for `Cc1cc2c(=O)c3c(=O)n(-c4ccccc4)c(C4CCC4)nc3n(CCN)c2s1` [Example 2.2, 9-(2-aminoethyl)-2-cyclobutyl-7-methyl-3-phenylthieno[3′,2′:5,6]pyrido[2,3-d]pyrimidine-4,5(3H,9H)-dione], in assay [1], the Emax is 162% and half-maximal activity (AC50) was put at 6.9 µM. In the assay with CFTR-Y122X (Homo sapiens, HEK293, 24 h), the Emax was 343% and the AC50 is 4.3 µM.

Regarding `Cn1c2nc(C3CCC3)n(-c3ccccc3)c(=O)c2c(=O)c2ccsc21` [Example 2.10, 2-cyclobutyl-9-methyl-3-phenylthieno[3′,2′:5,6]pyrido[2,3-d]pyrimidine-4,5(3H,9H)-dione], the Emax in assay [1] stood at 167%; in the assay on CFTR-Y122X (Homo sapiens, HEK293, 24 h) it was 393%. Besides, the AC50 turned out to be 5.5 µM in assay [1] and 2 µM with CFTR-Y122X (Homo sapiens, HEK293, 24 h).

As for `Cc1cc2c(=O)c3c(=O)n(-c4ccccc4)c(C(C)C)nc3n(C)c2s1` [Example 1.2, 2-isopropyl-7,9-dimethyl-3-phenylthieno[3′,2′:5,6]pyrido[2,3-d]pyrimidine-4,5(3H,9H)-dione], in assay [1], the Amax worked out at 59% and the AC50 turned out to be 17 µM. In the assay on CFTR-Y122X, this compound returned an Amax of 249% and an AC50 of 13 µM.
